Molecules are shown by their SMILES.

Some targets named below: CDK5 (Homo sapiens, UniProt Q00535); CDKL3 (Homo sapiens, UniProt Q8IVW4); CLK3 (Homo sapiens, UniProt P49761); DSTYK (Homo sapiens, UniProt Q6XUX3); GRK7 (Homo sapiens, UniProt Q8WTQ7); MAP2K3 (Homo sapiens, UniProt P46734); MAP3K13 (Homo sapiens, UniProt O43283); MAPK11 (Homo sapiens, UniProt Q15759); MAPK14 (Homo sapiens, UniProt Q16539); MERTK (Homo sapiens, UniProt Q12866); MYLK2 (Homo sapiens, UniProt Q9H1R3); NEK2 (Homo sapiens, UniProt P51955); NEK7 (Homo sapiens, UniProt Q8TDX7); PI4KB (Homo sapiens, UniProt Q9UBF8); PLK2 (Homo sapiens, UniProt Q9NYY3); PRKX (Homo sapiens, UniProt P51817); STK10 (Homo sapiens, UniProt O94804); TNIK (Homo sapiens, UniProt Q9UKE5).

Holding throughout (experiment): biochemical
Set-up in all cases: KINOMEscan competition binding, DNA-tagged kinase against immobilised ligand, qPCR read-out
Settings in all cases: read-out: Percent Control
Background: Real-time PCR tracks product formation cycle by cycle.

A further experiment deals with T1, ABL1-phosphorylated (Homo sapiens, UniProt P00519).
T1 construct: phosphorylated

The target in experiment [1] is T2, RPS6KA4(Kin.Dom.2-C-terminal) (Homo sapiens, UniProt O75676).
T2 construct: Kin.Dom.2 C-terminal

Chain of CLK3 (P49761 whole entry): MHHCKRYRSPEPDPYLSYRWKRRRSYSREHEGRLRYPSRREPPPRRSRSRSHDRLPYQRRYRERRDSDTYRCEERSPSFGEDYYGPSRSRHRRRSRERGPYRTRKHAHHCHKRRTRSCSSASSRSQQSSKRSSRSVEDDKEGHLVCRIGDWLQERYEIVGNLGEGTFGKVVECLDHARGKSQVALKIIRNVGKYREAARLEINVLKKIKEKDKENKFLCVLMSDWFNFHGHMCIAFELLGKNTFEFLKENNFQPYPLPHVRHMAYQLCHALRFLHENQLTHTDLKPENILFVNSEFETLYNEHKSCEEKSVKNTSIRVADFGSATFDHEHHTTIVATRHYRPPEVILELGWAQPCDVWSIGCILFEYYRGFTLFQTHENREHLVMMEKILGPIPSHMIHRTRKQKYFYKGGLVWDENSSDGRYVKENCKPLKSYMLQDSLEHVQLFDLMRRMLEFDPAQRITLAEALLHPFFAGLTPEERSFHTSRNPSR
Chain of PRKX (P51817 whole entry): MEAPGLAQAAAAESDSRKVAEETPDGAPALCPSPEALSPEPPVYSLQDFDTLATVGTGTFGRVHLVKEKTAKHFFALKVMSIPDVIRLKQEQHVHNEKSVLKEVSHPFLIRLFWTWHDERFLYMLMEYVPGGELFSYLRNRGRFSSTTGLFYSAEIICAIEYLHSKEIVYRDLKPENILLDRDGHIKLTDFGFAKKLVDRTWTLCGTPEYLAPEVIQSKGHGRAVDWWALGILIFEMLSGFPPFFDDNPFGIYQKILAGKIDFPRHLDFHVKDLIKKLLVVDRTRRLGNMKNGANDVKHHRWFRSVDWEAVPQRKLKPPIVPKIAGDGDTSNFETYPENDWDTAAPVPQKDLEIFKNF
Chain of NEK2 (P51955 whole entry): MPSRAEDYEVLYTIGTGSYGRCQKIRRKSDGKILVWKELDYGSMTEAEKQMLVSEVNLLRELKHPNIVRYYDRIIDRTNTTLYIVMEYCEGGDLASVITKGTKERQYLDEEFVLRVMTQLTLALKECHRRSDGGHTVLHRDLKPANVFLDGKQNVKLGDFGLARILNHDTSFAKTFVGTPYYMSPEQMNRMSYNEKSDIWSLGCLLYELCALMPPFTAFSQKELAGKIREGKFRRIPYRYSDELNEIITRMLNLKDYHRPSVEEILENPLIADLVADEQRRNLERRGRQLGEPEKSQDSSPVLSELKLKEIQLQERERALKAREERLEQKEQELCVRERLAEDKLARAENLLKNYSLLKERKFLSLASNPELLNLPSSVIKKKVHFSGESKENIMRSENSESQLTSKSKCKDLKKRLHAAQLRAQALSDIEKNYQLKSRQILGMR
Chain of NEK7 (Q8TDX7 whole entry): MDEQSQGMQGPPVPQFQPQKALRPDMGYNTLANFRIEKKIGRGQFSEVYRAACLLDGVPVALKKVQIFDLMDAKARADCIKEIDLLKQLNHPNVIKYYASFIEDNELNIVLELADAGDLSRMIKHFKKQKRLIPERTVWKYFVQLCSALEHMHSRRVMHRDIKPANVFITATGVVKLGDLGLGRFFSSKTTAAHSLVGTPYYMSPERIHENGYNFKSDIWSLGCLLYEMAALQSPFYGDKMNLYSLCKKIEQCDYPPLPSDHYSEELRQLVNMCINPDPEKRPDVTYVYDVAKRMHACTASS
Chain of MAP2K3 (P46734 whole entry): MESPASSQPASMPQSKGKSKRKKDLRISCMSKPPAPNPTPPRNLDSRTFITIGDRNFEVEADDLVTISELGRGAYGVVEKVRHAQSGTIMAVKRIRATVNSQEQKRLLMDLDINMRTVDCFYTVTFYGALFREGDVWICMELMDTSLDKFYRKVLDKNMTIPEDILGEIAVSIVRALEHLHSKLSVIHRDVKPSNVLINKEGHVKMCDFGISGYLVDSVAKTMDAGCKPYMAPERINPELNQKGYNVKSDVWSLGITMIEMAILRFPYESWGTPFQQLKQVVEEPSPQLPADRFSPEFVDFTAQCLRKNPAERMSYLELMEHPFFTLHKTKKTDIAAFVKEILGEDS
Chain of MAP3K13 (O43283 whole entry): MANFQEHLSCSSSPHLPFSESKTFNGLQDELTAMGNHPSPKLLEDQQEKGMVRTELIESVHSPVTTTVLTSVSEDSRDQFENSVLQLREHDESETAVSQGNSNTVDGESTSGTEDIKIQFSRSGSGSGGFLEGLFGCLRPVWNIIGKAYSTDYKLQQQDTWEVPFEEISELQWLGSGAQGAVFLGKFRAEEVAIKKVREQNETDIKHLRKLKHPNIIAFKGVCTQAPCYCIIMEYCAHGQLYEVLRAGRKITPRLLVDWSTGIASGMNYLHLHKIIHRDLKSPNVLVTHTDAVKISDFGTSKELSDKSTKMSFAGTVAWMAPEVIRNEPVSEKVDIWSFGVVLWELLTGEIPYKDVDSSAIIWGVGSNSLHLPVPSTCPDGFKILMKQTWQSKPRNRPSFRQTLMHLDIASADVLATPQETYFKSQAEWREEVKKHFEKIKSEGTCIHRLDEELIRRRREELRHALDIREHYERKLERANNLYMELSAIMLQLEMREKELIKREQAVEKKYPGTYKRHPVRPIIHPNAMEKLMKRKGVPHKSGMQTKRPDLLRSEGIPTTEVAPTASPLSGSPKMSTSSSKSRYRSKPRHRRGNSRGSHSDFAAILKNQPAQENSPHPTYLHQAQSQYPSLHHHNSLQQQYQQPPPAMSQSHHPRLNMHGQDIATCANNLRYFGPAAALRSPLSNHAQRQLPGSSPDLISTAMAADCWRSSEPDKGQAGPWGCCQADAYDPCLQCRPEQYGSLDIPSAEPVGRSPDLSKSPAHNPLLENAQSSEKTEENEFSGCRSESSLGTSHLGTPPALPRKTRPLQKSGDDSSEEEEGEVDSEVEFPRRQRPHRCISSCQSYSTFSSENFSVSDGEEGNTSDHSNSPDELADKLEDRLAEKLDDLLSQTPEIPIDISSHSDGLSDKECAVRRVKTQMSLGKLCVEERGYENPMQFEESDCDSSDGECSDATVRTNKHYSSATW
Chain of PI4KB (Q9UBF8 whole entry): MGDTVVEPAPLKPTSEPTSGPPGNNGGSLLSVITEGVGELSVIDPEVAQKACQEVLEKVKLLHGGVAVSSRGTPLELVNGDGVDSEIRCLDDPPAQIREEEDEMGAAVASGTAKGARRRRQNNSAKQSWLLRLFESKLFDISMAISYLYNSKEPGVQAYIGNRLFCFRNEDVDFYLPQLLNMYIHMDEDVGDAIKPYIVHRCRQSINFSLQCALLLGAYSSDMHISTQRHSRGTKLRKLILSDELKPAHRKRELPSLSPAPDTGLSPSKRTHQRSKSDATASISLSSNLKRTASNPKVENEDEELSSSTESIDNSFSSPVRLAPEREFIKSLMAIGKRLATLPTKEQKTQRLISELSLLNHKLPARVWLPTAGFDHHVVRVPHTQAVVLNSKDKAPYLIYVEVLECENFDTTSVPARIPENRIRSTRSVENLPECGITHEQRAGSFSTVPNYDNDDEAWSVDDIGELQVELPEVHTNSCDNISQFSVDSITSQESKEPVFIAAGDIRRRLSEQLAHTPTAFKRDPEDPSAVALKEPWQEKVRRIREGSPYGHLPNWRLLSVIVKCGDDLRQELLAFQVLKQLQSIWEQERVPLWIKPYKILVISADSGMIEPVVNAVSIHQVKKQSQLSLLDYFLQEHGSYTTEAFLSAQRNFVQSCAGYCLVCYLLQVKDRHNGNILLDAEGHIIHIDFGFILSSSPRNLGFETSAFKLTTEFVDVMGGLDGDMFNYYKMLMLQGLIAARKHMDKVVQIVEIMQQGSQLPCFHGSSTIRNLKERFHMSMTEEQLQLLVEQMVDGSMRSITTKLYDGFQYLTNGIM
T1 sequence (P00519 whole entry): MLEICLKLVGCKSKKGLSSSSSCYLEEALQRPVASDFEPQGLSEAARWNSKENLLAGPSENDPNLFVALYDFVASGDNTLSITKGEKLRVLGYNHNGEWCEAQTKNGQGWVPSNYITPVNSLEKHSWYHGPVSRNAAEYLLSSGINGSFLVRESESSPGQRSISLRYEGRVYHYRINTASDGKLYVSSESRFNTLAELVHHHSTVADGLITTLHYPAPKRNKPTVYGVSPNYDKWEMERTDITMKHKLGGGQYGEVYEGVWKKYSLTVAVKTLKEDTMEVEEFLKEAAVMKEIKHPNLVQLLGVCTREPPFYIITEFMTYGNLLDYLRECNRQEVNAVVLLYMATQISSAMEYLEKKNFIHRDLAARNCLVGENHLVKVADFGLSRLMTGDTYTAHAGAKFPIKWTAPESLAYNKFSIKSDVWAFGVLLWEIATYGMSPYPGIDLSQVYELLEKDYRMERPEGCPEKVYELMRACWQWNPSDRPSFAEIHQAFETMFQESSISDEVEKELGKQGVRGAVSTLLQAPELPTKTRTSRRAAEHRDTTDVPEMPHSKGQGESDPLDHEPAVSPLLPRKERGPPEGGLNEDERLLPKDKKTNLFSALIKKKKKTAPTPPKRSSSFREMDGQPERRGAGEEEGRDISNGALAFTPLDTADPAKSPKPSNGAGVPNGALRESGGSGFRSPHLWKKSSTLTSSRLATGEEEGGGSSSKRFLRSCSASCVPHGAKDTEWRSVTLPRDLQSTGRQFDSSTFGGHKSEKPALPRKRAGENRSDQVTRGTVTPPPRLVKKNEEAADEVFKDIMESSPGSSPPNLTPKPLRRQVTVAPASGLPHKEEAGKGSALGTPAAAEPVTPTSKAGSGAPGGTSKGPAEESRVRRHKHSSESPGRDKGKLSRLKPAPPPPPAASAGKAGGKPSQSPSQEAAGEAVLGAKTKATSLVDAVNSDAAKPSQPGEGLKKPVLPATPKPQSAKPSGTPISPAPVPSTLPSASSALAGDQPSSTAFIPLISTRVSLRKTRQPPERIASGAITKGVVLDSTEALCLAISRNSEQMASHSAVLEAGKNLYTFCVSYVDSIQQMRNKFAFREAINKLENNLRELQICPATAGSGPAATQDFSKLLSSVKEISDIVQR

For the compound `Oc1ccc(C2=Cc3ccc(O)cc3OC2)cc1` [compound 1, idronoxil], the remaining binding at 10 µM at ABL1-phosphorylated is 35%; at CDK5, 100%; on CDKL3, 59%; at CLK3, 70%; on DSTYK it was 74%; at GRK7, 100%. Moreover, the remaining binding at 10 µM amounted to 56% at MAP2K3; 84% at MAP3K13; 85% on MAPK11; 90% on MAPK14; 97% at MERTK; 80% at MYLK2. The remaining binding at 10 µM on NEK2 is 100%; on NEK7 it was 99%; on PI4KB, 63%; on PLK2 it was 80%; at PRKX, 88%; in experiment [1] it was 53%. Also, the remaining binding at 10 µM worked out at 100% on STK10 and 56% at TNIK.

Values taken from publication PMC10507085, “Pharmacological inhibition of TBK1/IKKε blunts immunopathology in a murine model of SARS-CoV-2 infection” (Nature Communications, 2023).
